Assay results: patent US20240156097A1, “AGROCHEMICAL ADJUVANTS FROM STACHYBOTRYS CHARTARUM” (Croda International Plc, priority 2021, published 2024)

What was measured:
[1] = test system: Botrytis cinerea (ATCC 90479); assay: Adjuvancy: growth inhibition of Botrytis cinerea on agar with fungicide and/or adjuvant (colony diameter); assay type: cell-based; conditions: for Fold Change in Growth Inhibition: 48 h, 22° C.; for inherent fungicidal activity on their own: adjuvant alone, any of the concentrations tested; for fungicidal activity compared to dimethomorph, prothioconazole, mancozeb, metalaxyl and pyrimethanil alone: in words, adjuvant plus fungicide
[2] = test system: African green monkey Vero kidney cells (ATCC CCL-81); assay: Cytotoxicity against Vero cells (alamarBlue); assay type: cell-based; conditions: highest concentration tested (128 μg/mL); 24 hours
Method: The cytotoxicity of the phenylspirodrimanes and stachybocin A was assessed in vitro against African green monkey Vero kidney cells (ATCC CCL-81). Cells were cultured in 15 mL of Eagle's minimal essential medium (Sigma) supplemented with 10% (v/v) fetal bovine serum (VWR), […] and 0.1 mg/mL streptomycin in T75 cm^2 cell culture flasks. Cells were incubated for 24 hours at 37° C. in a humidified atmosphere of 5% CO2. Culture medium was refreshed every 2-3 days and cells were not allowed to exceed 80% confluency.
At 80% confluency the cells were counted, diluted and plated into 96 well flat bottom cell culture plates (Corning) at a cell density of 10,000 cells per well in 90 μL of growth medium. The plates were incubated at 37° C. in a humidified atmosphere of 5% CO2 for 24 hours to allow cells to adhere to the plate before treatment. […]
The plates were incubated at 37° C. in a humidified atmosphere of 5% C02 for 24 hours after which alamarBlue (Invitrogen) was added to each well at 10% of the culture volume. Fluorescence was monitored using a Thermo Scientific Varioskan Flash plate reader at 560/12 excitation, 590 nm emission both at time zero and 4 hrs after alamarBlue addition. After subtracting the time zero emission 590 nm measurement from the final reading, the inferred percentage of cell viability relative to the vehicle control wells was calculated.

[3] = adjuvant 12.5 μg/mL + pyraclostrobin 0.1 μg/mL vs pyraclostrobin alone
[4] = adjuvant 12.5 μg/mL + pyraclostrobin 0.2 μg/mL vs pyraclostrobin alone
[5] = adjuvant 12.5 μg/mL + pyraclostrobin 0.4 μg/mL vs pyraclostrobin alone
[6] = adjuvant 12.5 μg/mL + pyraclostrobin 0.8 μg/mL vs pyraclostrobin alone
[7] = adjuvant 12.5 μg/mL + tebuconazole 0.05 μg/mL vs tebuconazole alone
[8] = adjuvant 12.5 μg/mL + tebuconazole 0.10 μg/mL vs tebuconazole alone
[9] = adjuvant 12.5 μg/mL + tebuconazole 0.19 μg/mL vs tebuconazole alone
[10] = adjuvant 12.5 μg/mL + tebuconazole 0.38 μg/mL vs tebuconazole alone
[11] = adjuvant 25 μg/mL + pyraclostrobin 0.1 μg/mL vs pyraclostrobin alone
[12] = adjuvant 25 μg/mL + pyraclostrobin 0.2 μg/mL vs pyraclostrobin alone
[13] = adjuvant 25 μg/mL + pyraclostrobin 0.4 μg/mL vs pyraclostrobin alone
[14] = adjuvant 25 μg/mL + pyraclostrobin 0.8 μg/mL vs pyraclostrobin alone
[15] = adjuvant 25 μg/mL + tebuconazole 0.05 μg/mL vs tebuconazole alone
[16] = adjuvant 25 μg/mL + tebuconazole 0.10 μg/mL vs tebuconazole alone
[17] = adjuvant 25 μg/mL + tebuconazole 0.19 μg/mL vs tebuconazole alone
[18] = adjuvant 25 μg/mL + tebuconazole 0.38 μg/mL vs tebuconazole alone
[19] = adjuvant 50 μg/mL + pyraclostrobin 0.1 μg/mL vs pyraclostrobin alone
[20] = adjuvant 50 μg/mL + pyraclostrobin 0.2 μg/mL vs pyraclostrobin alone
[21] = adjuvant 50 μg/mL + pyraclostrobin 0.4 μg/mL vs pyraclostrobin alone
[22] = adjuvant 50 μg/mL + pyraclostrobin 0.8 μg/mL vs pyraclostrobin alone
[23] = adjuvant 50 μg/mL + tebuconazole 0.05 μg/mL vs tebuconazole alone
[24] = adjuvant 50 μg/mL + tebuconazole 0.10 μg/mL vs tebuconazole alone
[25] = adjuvant 50 μg/mL + tebuconazole 0.19 μg/mL vs tebuconazole alone
[26] = adjuvant 50 μg/mL + tebuconazole 0.38 μg/mL vs tebuconazole alone

SMILES	Fold Change in Growth Inhibition [1, 3]	Fold Change in Growth Inhibition [1, 4]	Fold Change in Growth Inhibition [1, 5]	Fold Change in Growth Inhibition [1, 6]	Fold Change in Growth Inhibition [1, 7]	Fold Change in Growth Inhibition [1, 8]	Fold Change in Growth Inhibition [1, 9]	Fold Change in Growth Inhibition [1, 10]	Fold Change in Growth Inhibition [1, 11]	Fold Change in Growth Inhibition [1, 12]	Fold Change in Growth Inhibition [1, 13]	Fold Change in Growth Inhibition [1, 14]	Fold Change in Growth Inhibition [1, 15]	Fold Change in Growth Inhibition [1, 16]	Fold Change in Growth Inhibition [1, 17]	Fold Change in Growth Inhibition [1, 18]	Fold Change in Growth Inhibition [1, 19]	Fold Change in Growth Inhibition [1, 20]	Fold Change in Growth Inhibition [1, 21]	Fold Change in Growth Inhibition [1, 22]	further results
CC1CCC2C(C)(C)C(O)CCC2(C)C12Cc1c(O)cc3c(c1O2)CN(C(Cc1ccccc1)C(=O)O)C3=O (stereo not drawn) [Phe (Ib), phenylspirodrimane (Ib)]	3.59	1.11	1.47	1.55	22.22	2.83	2.17	1.03	4.25	1.56	1.08	1.19	7.94	1.67	1.83	1.00	17.87	1.67	1.62	1.57	Fold Change in Growth Inhibition [1, 23]: 14.29; Fold Change in Growth Inhibition [1, 24]: 4.33; Fold Change in Growth Inhibition [1, 25]: 2.36; Fold Change in Growth Inhibition [1, 26]: 1.00; inherent fungicidal activity on their own [1]: did not demonstrate any inherent fungicidal activity; fungicidal activity compared to dimethomorph, prothioconazole, mancozeb, metalaxyl and pyrimethanil alone [1]: showed increased fungicidal activity; cytotoxicity against Vero cells [2]: did not exhibit any cytotoxicity
CC1CCC2C(C)(C)C(O)CCC2(C)C12Cc1c(O)cc3c(c1O2)CN(CCCCC(C(=O)O)N1Cc2c(cc(O)c4c2OC2(C4)C(C)CCC4C(C)(C)C(O)CCC42C)C1=O)C3=O (stereo not drawn) [Sta A (IIa), stachybocin A]	2.92	1.00	1.00	1.00	12.70	2.83	2.36	1.00	2.92	1.00	1.00	1.00	14.29	2.67	1.81	1.00	2.25	1.00	1.47	1.08	Fold Change in Growth Inhibition [1, 23]: 12.70; Fold Change in Growth Inhibition [1, 24]: 2.17; Fold Change in Growth Inhibition [1, 25]: 1.36; Fold Change in Growth Inhibition [1, 26]: 1.00; inherent fungicidal activity on their own [1]: did not demonstrate any inherent fungicidal activity; fungicidal activity compared to dimethomorph, prothioconazole, mancozeb, metalaxyl and pyrimethanil alone [1]: showed increased fungicidal activity; cytotoxicity against Vero cells [2]: did not exhibit any cytotoxicity
